Test results from US20230219963A1, “PYRROLO[2,3-D]PYRIMIDINE DERIVATIVES” (Pfizer Inc., priority 2020, published 2023).
pIC50: −log10 of the molar value.

Tests used:
Type in all cases: cell-based
IL-4 induced pSTAT6 = assay: IL-4-induced pSTAT6 in human keratinocytes; settings: Keratinocyte, JAK1/JAK2, read-out: IL-4 induced pSTAT6, cellular potency IC50
Experimental: (§1) Human whole blood was collected from healthy donors via vein puncture into Vacutainer collection tubes containing sodium heparin in accordance with Pfizer protocols (Protocol No. GOHW RDP-01) approved by the Shulman Institutional Review Board. Blood was warmed to 37° C. priorto use. Human whole blood was aliquoted (90 μL/well) in 96-well, deep-well, V-bottom plates and treated with compounds (5 μL/well) at different concentrations up to 60 μM (0.2% DMSO final) at 37° C. for 60 minutes. This was followed by a challenge with IFNα (5000 U/mL), IFNγ (100 ng/mL), IL-6 (50 ng/mL), IL-10 (30 ng/mL), IL-12 (30 ng/mL), IL-15 (30 ng/mL), IL-21 (50 ng/mL), IL-23 (25 ng/mL), IL-27 (1000 ng/mL), EPO (2 U/mL), TSLP (50 ng/mL) or PBS and incubated for 15 minutes. Anti-cell surface antibodies were added 15 minutes prior to cytokine stimulation; anti-CD3-BV421 (0.5 μL/well) to IL-6-treated and TSLP-treated samples and anti-CD14-BV421 (0.5 μL/well) to IFNγ-treated samples. Samples were treated with warm 1×Lyse/Fix buffer (700 μL/well) to terminate activation and further incubated at 37° C. for 20 minutes to lyse red blood cells. Plates were centrifuged at 300×g for 5 minutes, supernatant was aspirated, and cells were washed with 800 μL/well of staining buffer (D-PBS containing 0.1% FBS and 0.01% sodium azide). Washed cell pellets were resuspended in 350 μL/well of prechilled 90% methanol and incubated at 4° C. for 30 minutes. After the removal of 90% methanol, cells were washed once with staining buffer. […]
(§2) After overnight incubation at 4° C., anti-pSTAT stained samples were transferred into 96-well polypropylene U-bottom plates and flow cytometric analysis was performed on a LSR Fortessa™ equipped with a HTS plate loader. […] Background fluorescence was defined using unstimulated cells and a gate was placed at the foot of the peak to include ˜0.5% gated population. […]

TSLP induced pSTAT5 = assay: TSLP-induced pSTAT5 in human whole blood (CD3+ cells); settings: JAK1/JAK2, read-out: TSLP induced pSTAT5, cellular potency IC50
Experimental: as §1, §2

IL-31 induced pSTAT3 = assay: IL-31-induced pSTAT3 in IFNγ-primed THP-1 cells; settings: Homo sapiens, JAK1/JAK2, read-out: IL-31 induced pSTAT3, cellular potency IC50
Experimental: THP-1 cells were maintained in RPMI 1640 medium containing 10% FBS, 50 μM 2 mercaptoethanol, 50 U/mL penicillin, 50 µg/mL streptomycin and 2 mM L-glutamine. THP 1 cells were treated with IFNγ (20 ng/mL) for 18 hours. IFNγ primed THP-1 cells were resuspended in fresh RPMI 1640 medium, treated with compounds (0.0003 to 20 μM) for 60 minutes, followed by stimulation with IL-31 (1 μg/mL) for additional 10 minutes. Cells were then fixed by 2% paraformaldehyde and permeabilized by 90% methanol. Fixed and permeabilized cells were stained with AlexaFluor647™ labeled anti-pSTAT3 antibody (1 to 150 dilution).
After overnight incubation at 4° C., anti-pSTAT stained samples were transferred into 96-well polypropylene U-bottom plates and flow cytometric analysis was performed on a LSR Fortessa™ equipped with a HTS plate loader. For human whole blood samples, lymphocyte population was gated for pSTAT histogram analysis for IFNα, IL-10, IL-12, IL-15, IL-21, IL-23, and IL-27-treated samples; CD14^+ cells for IFNγ-treated samples; CD3^+ cells for IL-6 and TSLP-treated samples; all events (entire populations) for EPO-treated samples. Entire populations of keratinocytes and THP-1 cells were gated for the IL-4, IL-13, IL-22 and IL-31 assays. Background fluorescence was defined using unstimulated cells and a gate was placed at the foot of the peak to include ˜0.5% gated population. Histogram statistical analysis was performed using FACSDiva version 8.0. Relative fluorescence unit, which measures the level of pSTAT, was calculated by multiplying the percent positive population and its mean fluorescence. Inhibition curves and half maximal inhibitory concentration (IC50) values were determined using Prism™ software (Version 8) or the Activity Base data analysis software (ID Business Solutions).

IL-22 induced pSTAT3 = assay: IL-22-induced pSTAT3 in human keratinocytes; settings: Keratinocyte, JAK1/TYK2, read-out: IL-22 induced pSTAT3, cellular potency IC50

| pIC50 (IL-4 induced pSTAT6) | pIC50 (TSLP induced pSTAT5) | pIC50 (IL-31 induced pSTAT3) | pIC50 (IL-22 induced pSTAT3) | SMILES |
| --- | --- | --- | --- | --- |
| 6.87 | 6.57 | 7.25 | 6.70 | C[C@H](O)CS(=O)(=O)N[C@H]1C[C@@H](N(C)c2ncnc3[nH]ccc23)C1 (single isomer, unassigned) [IA (M2)] |
| 6.36 | 6.11 | 7.10 | 6.15 | CN(c1ncnc2[nH]ccc12)[C@H]1C[C@@H](NS(=O)(=O)CCCO)C1 [IB (M1), 3-Hydroxy-N-(cis-3-(methyl(7H-pyrrolo[2,3-d]pyrimidin-4-yl)amino)cyclobutyl)propane-1-sulfonamide] |
